In patent publication US12090166B2, “Pharmaceutical composition for preventing or treating dentin-dental pulp disease or periodontal disease, containing LPAR2 inhibitor” (PUSAN NATIONAL UNIVERSITY INDUSTRY-UNIVERSITY COOPERATION …, priority 2018, dated 2024):
“Also recorded” adds a separate entry of the source.

Columns and labels:
[1] = test system: exposed pulp cavity of mouse molars; test: Pulp cavity exposure animal model (H&E, MTC, micro-CT, immunohistochemistry); format: in vivo
Procedure: (§1) After anesthesia is performed by administering intraperitoneally Zoletil (Virbac, Carros, France) and Rompun (Bayer, Berlin, Germany), which are anesthetic inducing agents according to the weight, an experiment was conducted to expose the pulp cavity for the maxillary right first molars. To confirm the change in gene expression, an experiment was conducted on the developing 14th day pregnant embryo. ICR-based female mice whose pregnancy was confirmed were sacrificed in the morning of the 14th day after pregnancy, and then embryos were obtained and the tooth germ of the lower jaw was finely dissected under a stereoscopic microscope, and the tooth germ tissue was placed on the lid of a 35 mm diameter Petri dish for experimentation together with the culture solution and cultured in a 5% carbon dioxide incubator at 37° C. for 24 hours with or without Beck 35 drug administration.
In order to prepare tissue sections, mice were sacrificed after a certain experimental period in the experimental group and the control group, fixed in 4% paraformaldehyde, washed with phosphate buffer solution, and demineralized in 0.1 M EDTA chelate solution. Demineralization proceeded for 4 weeks, and after demineralization, it was embedded in wax, cut to a thickness of 7 micrometers, and smeared on a glass slide to perform conventional hematoxylin and eosin staining.
MTC staining was performed to confirm the synthesis of collagen protein and formation of mineralized tissue. After staining the nucleus with hematoxylin for the tissue on the glass slide produced through the normal tissue sectioning process and if the entire tissue is stained with a mixed dyeing solution designed to perform cytoplasmic staining with biebrich scarlet and muscle fibers staining with acid fuchsin, all of collagen fibers, muscle fibers and cytoplasm can be observed by staining red.
Microcomputerized tomography was performed to confirm the hard tissue regenerated by the drug. The lower jaw tissue fixed in 4% paraformaldehyde was observed using Skyscan1272 (Bruker, Kontich, Belgium), and 2 micrometers pixels were photographed at 4904×3280 resolution for the entire 360 degree, and the image was reconstructed in 3D with a data viewer and then the degree of hard tissue formation was objectively analyzed by analyzing with the CTAn (Bruker) program.
While observing the oral cavity of anesthetized mice under a stereoscopic microscope, a pulp cavity exposure experiment was performed on the upper right first molar, and the left upper first molar was used as a untreated control. While observing with a stereoscopic microscope, using a round burr having 0.6 mm diameter connected to a high-speed handpiece, the enamel and dentin was exposed to be perpendicular to the occlusal surface, and when necessary, water was sprayed to minimize tissue damage. Afterwards, the Beck 35 drug was mounted on Pluronic F127 and delivered to the exposed pulp cavity. Only Pluronic F127 was delivered to confirm as a control. After the delivery of the Beck 35 drug to the pulp cavity, the doubly exposed pulp cavity was covered with Dycal (Dentsply Caulk, Milford, DE) and a […] composite resin. Thereafter, on the 3rd, 5th and 42nd days, the changes were confirmed by histological and microcomputed tomography techniques.
To confirm the expression of the protein, the expression pattern of NESTIN, a protein specific for odontoblasts, was confirmed by immunohistochemistry using tissue sections from the control and treatment groups. The expression of the protein was confirmed based on the antigen-antibody reaction, and the positive reaction of the protein was confirmed as brown with 3,3′-diaminobenzidine.

[2] = test system: dental papilla mesenchyme; test: Real-time PCR analysis of in vitro cultured dental papilla mesenchyme; format: cell-based, mouse; details: 24 hours, vs control group
Procedure: as §1, with “Experimental animals were carried out using mouse ICR-based male 8 week-old mice. After” for “After”
In order to confirm the change in gene expression by Beck 35 drugs, in vitro culture was performed by microdissecting the tooth germ at the 14th day of the embryonic period, and the group treated with the drug for 24 hours was set as the experimental group, and the untreated tissue was set as the control group, and changes in gene expression were confirmed by real-time PCR analysis. […]

[3] = test system: human-derived dental pulp stem cells; test: Electron microscope analysis after bone differentiation; format: cell-based; details: bone differentiation medium with vs without Beck 35
Procedure: As in Example 2-2, human-derived dental pulp stem cells were cultured in a culture medium for inducing bone differentiation with or without Beck 35, an inhibitor of LPAR2, to induce bone differentiation, and then observed by an electron microscope.

tooth germ mesenchyme = test: Real-time PCR analysis of in vitro cultured tooth germ mesenchyme; format: cell-based, mouse; details: 24 hours, 5 μM, vs control group
Procedure: as §1, with “Experimental animals were carried out using mouse ICR-based male 8 week-old mice. After” for “After”
In order to confirm the change in gene expression by Beck 35 drugs, in vitro culture was performed by microdissecting the tooth germ at the 14th day of the embryonic period, and the group treated with the drug for 24 hours was set as the experimental group, and the untreated tissue was set as the control group, and changes in gene expression were confirmed by real-time PCR analysis. After RNA was obtained from the cultured tissue, the first strand cDNA was synthesized and the expression level was confirmed by real-time PCR for genes known to be important for dentin formation until now.

[4] = test system: human-derived dental pulp stem cells; test: Cell viability measurement (MTT method); format: cell-based; details: 24 hours; for proliferation of human-derived dental pulp stem cells (cell viability, MTT): expansion medium, vs control
Procedure: Cell viability measurement was evaluated by the 3-(4,5-dimethylthiazol-2-yl)-2,5-diphenyl-2H-tetrazolium bromide (MTT) method. Human-derived dental pulp stem cells were coated with 0.2% gelatin one day before culture. On the day of incubation, 0.2% gelatin was removed from the 48-well plate and washed once with PBS. In 48-well plates, human-derived dental pulp stem cells (4×10^5 cells/ml) were cultured in Miltenyi Stem MACS MSC Expansion Media Kit XF medium containing 100 μg/ml streptomycin and 100 μg/ml penicillin. Beck 35 was evaluated at various concentrations (0, 0.1, 1 and 1.0 μg/ml) for 24 hours at 37° C. in an atmosphere of 5% CO2 and 95% humidity. Then, the cells were incubated with 0.5 mg/ml MTT (SIGMA, USA) for 3 hours, and the reaction was stopped by adding dimethyl sulfoxide (DMSO, JUNSEL, Japan). Results were obtained at 560 nm using an ELISA reader. The cell viability of the control cells was used as a 100% control value.
In addition, human-derived dental pulp stem cells were cultured in bone differentiation inducing medium (10% fetal bovine serum, […] dexamethasone, 10 mM β-glycerophosphate and 50 mM ascorbic acid) for 24 hours to induce the differentiation and various concentrations (1, 5 and 1.0 μM/ml) of Beck 35 were treated during differentiation.

[5] = test system: human-derived dental pulp stem cells; test: Extracellular matrix calcification by Alizarin Red S staining during bone differentiation; format: cell-based; details: for calcification (Alizarin Red S staining): 0, 1, 5 and 1.0 μM/ml in bone differentiation induction medium
Procedure: Human-derived dental pulp stem cells (4×10^5 cells/ml) were cultured in Miltenyi Stem MACS MSC Expansion Media Kit XF medium containing 100 μg/ml streptomycin and 100 μg/ml penicillin, followed by culturing in bone differentiation induction medium (10% fetal bovine serum, […] dexamethasone, 10 mM β-glycerophosphate, and 50 mM ascorbic acid). Beck 35 (LPAR2 inhibitor) and LPA were added to the bone differentiation induction medium at various concentrations (0, 1, 5 and 1.0 μM/ml). […] In order to quantify the degree of staining, the absorbance was measured at 562 nm after dissolving in 10% (WN) cetylpyridinium chloride and 10 mM sodium phosphate (pH 7.0) solution.
Human-derived dental pulp stem cells (4×10^5 cells/ml) were cultured in Miltenyi Stem MACS MSC Expansion Media Kit XF medium containing 100 μg/ml streptomycin and 100 μg/ml penicillin, and differentiation was induced for 14 days by changing to the bone differentiation induction medium. To the bone differentiation induction medium, RP10-83, an agonist of LPAR2 and H2L5186303, an antagonist of LPAR2 were added at various concentrations (0, 1, and 10 μM/ml). The cells in which bone differentiation was induced were washed twice with PBS, fixed with 70% ethanol at 4° C. for 1 hour, stained with 40 mM Alizarin Red S (pH 4.2, Sigma Co.) solution for 10 minutes, and then washed with distilled water sufficiently. In order to quantify the degree of staining, the absorbance was measured at 562 nm after dissolving in a 10% (WN) cetylpyridinium chloride and 10 mM sodium phosphate (pH 7.0) solution.
Human-derived dental pulp stem cells (4×10^5 cells/ml) were cultured in a growth medium without antibiotics. 50 nM of LPAR2 si-RNA was transfected using jetPRIME (Polyplus Transfection) according to the manufacturers protocol. As a control, non-targeting siRNA (SEQ ID NO: 1: […]) was transfected. The differentiation of the cells was induced for 7 days after changing to bone differentiation induction medium. […]

[6] = test system: human-derived dental pulp stem cells; test: Real-time PCR analysis of differentiation genes; format: cell-based; details: 1 μM once every 3 days, 7 days in bone differentiation medium
Procedure: As in Example 2-2, human-derived dental pulp stem cells were differentiated for 7 days, 14 days and 21 days in a bone differentiation induction culture medium. Beck 35 was added to the bone differentiation medium at a concentration of 1 μM once every 3 days to differentiate for a week. Those maintained with the human-derived dental pulp stem cells, induced differentiation for 7 days, 14 days and 21 days with bone differentiation medium, and induced differentiation for 7 days in bone differentiation medium containing Beck 35 was used to isolate total RNA with Trisure (Bioline, UK) and reverse transcription to cDNA was performed using HelixCript™ Thermo Reverse Transcriptase (NanoHelix, Korea, Daejeon, Korea). The synthesized cDNA was performed using the primers of Table 1 and Power SYBR Green PCR Master Mix. The data analysis was determined using the delta Ct method.

[7] = after 3 and 5 days, vs control group
[8] = after 42 days, vs control group

## Cc1csc2c(N[C@@H](C)CN3CCN(S(=O)(=O)c4ccc(Cl)c(Cl)c4)CC3)ncnc12 [Beck 35]
[1]; 3 and 5 days later
  blood vessel distribution (MTC staining): same blood vessel distribution as the HE staining result
  number of cells in which the inflammatory cells and the nucleus were thickly condensed (MTC staining): small
[1]; 42 days after pulp cavity exposure, vs control group
  dentin bridge formation (micro-CT): dentin bridge was formed; also recorded: perfect dentin bridge was regenerated
[1]; Beck 35 5 μM in exposed pulp cavity, maxillary molar of 8-week-old B6 mice
  dentin regeneration, morphological: perfectly formed dentin bridge
[1]; [7]
  NESTIN expression in pulp cavity periphery (immunohistochemistry): more positive reactions
  RUNX2 expression in pulp cavity periphery (immunohistochemistry): more positive reactions
  blood vessels in pulp cavity (H&E): more tissues were observed as blood vessels
  staining of cell nuclei in the pulp cavity (H&E): stained lighter than the control group
[1]; [8]
  formation of calcified dentin bridge (MTC staining): formation of calcified dentin bridge was confirmed
  formation of dentin bridge (H&E): formation of dentin bridge was clearly observed
[1]; after treating exposed pulp cavity
  new collagen fibers in pulp cavity (HE and MTC staining): new collagen fibers seen as pulp cavity internal tissue were confirmed
[1]; treatment group vs control group
  number of inflammatory cells (H&E): in the control group, the number of inflammatory cells was observed higher than that of the treatment group
[1]; vs control group (dispersed and pale dyed)
  staining of enamel matrix: dyed dark red
[2]
  expression of Bmp6: increased
  overall gene expression: overall gene expression increased
[3]
  cell morphology by electron microscope: relatively long-shaped cells
Tooth germ mesenchyme
  expression of Axin2 (Wnt signaling): reduced
  expression of Bmp2: reduced
  expression of Bmp4: reduced
  expression of Bmp6: reduced
  expression of Bmp7: reduced
  expression of Lef1 (Wnt signaling): reduced
  expression of beta-Catenin (Wnt signaling): reduced
[4]; 10 μM/ml
  proliferation of human-derived dental pulp stem cells (cell viability, MTT): promoted the proliferation
[4]; 0.1 and 1 μM/ml
  proliferation of human-derived dental pulp stem cells (cell viability, MTT): not different from the control
[4]; 1, 5 and 1.0 μM/ml, bone differentiation inducing medium
  proliferation of human dental pulp stem cells during differentiation: inhibited the proliferation
[5]
  calcification (Alizarin Red S staining): promoted the calcification in a concentration-dependent manner
[6]
  expression level of DMP-1 (dentin matrix protein 1): Increased
  expression level of DSPP (dentin sialophosphoprotein): Increased
  expression level of Runx2 (runt-related transcription factor 2): Increased
  expression level of osteopontin: Increased

## O=C(O)/C=C\C(=O)Nc1ccc(Oc2cccc(Oc3ccc(NC(=O)/C=C\C(=O)O)cc3)c2)cc1 [H2L5186303]
[5]; 0, 1, and 10 μM/ml, differentiation induced for 14 days
  bone differentiation (Alizarin Red S staining): promoted bone differentiation

## lysophosphatidic acid [LPA]
[5]
  calcification (Alizarin Red S staining): did not undergo the calcification
